Reference: PMC8869728 (Biomedicines, 2022)
Where two headings read alike, the source gives them in different places.

Assays:
[1] = tested on: AChE; conditions: read-out: IC50 of AChE inhibitory activities; cited from earlier work
[2] = tested on: AChE; parameters: method as in PMID 32118214; conditions: read-out: IC50 of AChE inhibitory activity; cited from earlier work
[3] = tested on: scopolamine-treated amnesiac ICR mice; experiment: Passive avoidance test in scopolamine-induced amnesiac ICR mice; conditions: scopolamine 1 mg/kg i.p.
Method: The 6-week-old male ICR mice were from the Laboratory Animal Center, College of Medicine, National Taiwan University (Taipei, Taiwan). The Prolab® RMH2500 normal diets (LabDiet Co., St. Louis, MO, USA) and water were free access during the animal experiments. After one week of acclimation, the VT-95EE or VT-95EE-EA pre-treatments were used to evaluate preventive functions as follows. […] At the first stage, the extract (VT-95EE and VT-95EE-EA)-administered group, ICR mice were treated from day 1 to day 11 by a single oral administration daily by gavage. […] Except for the blank, each mouse in all groups was intraperitoneally injected with scopolamine (1 mg/kg) 30 min after the oral administration. Each mouse in the blank group was injected with an equal volume of PBS instead of scopolamine. Each mouse received a learning and memory evaluation by a passive avoidance test 30 min after scopolamine injection at day 13 to day 14. All mice were sacrificed in the end of animal experiments at day 15, and the brain tissue of mouse in each group was isolated, weighted, and stored at −80°C for further uses.
The pre-treatment was used to evaluate preventive functions. […] At the first stage, the purified compound (vitisin A and vitisin B) administered group, ICR mice were treated from day 1 to day 9 by a single oral administration daily by gavage. […] Except for the blank, each mouse in all groups was intraperitoneally injected with scopolamine (1 mg/kg) 30 min after the oral administration. Each mouse in the blank group was injected with an equal volume of PBS instead of scoploamine. Each mouse received a learning and memory evaluation by a passive avoidance test 30 min after scopolamine injection at day 11 to day 12. All mice were sacrificed in the end of animal experiments at day 13, and the brain tissue of mice in each group was isolated, weighted, and stored at −80 °C for further uses.
The apparatus for passive avoidance test is a shuttle chamber composed of a bright box and a dark box; the dark box could be closed by a manual guillotine door (AccuScan Instruments Inc, Columbus, OH, USA). The dark box contained a wired metal floor, through which the electric foot shocks were automatically delivered in the acquisition trial. The first day was the acquisition trial, and the second day was the retention trial. For the acquisition trial, each mouse was placed around the shuttle chamber to acclimatize to the environment; 30 min later, each mouse was transferred to the bright box to record the time in the bright box (the step-through latency, s).

[4] = target: T1, recombinant human MAO-B (Homo sapiens, UniProt P27338); experiment: MAO-B inhibitory activities in vitro (kynuramine fluorescence); format: biochemical; conditions: calculated from linear equation of three concentrations; read-out: IC50 of MAO-B inhibition
T1 construct: purchased Sigma Chemical Co. (St. Louis, MO, USA)
T1 sequence (P27338 1-520): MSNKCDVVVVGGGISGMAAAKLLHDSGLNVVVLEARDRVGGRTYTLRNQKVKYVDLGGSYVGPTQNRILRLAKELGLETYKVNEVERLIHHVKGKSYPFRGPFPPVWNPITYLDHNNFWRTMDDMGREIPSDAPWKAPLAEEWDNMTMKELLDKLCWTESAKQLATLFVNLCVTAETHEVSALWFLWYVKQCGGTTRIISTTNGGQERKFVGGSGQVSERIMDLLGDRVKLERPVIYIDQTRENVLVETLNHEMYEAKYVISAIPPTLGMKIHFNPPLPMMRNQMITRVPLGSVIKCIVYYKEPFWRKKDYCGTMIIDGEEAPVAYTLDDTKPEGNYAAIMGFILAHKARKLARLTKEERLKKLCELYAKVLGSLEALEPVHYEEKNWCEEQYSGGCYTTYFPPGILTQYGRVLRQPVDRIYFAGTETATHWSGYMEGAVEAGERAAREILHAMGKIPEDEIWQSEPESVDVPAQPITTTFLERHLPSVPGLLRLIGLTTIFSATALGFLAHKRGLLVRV
Method: The kynuramine was used as the MAO-B substrate to generate a fluorescent product, 4-hydroxyquinoline, which was used to screen MAO-B inhibitory activity assays. […] The MAO-B inhibition (%) was calculated as the following: [(Fblank − Fsample)/(Fblank)] × 100%. The IC50 of MAO-B activity was calculated from each linear equation from three used concentrations for MAO-B inhibitions.

[5] = target: T2, recombinant human AChE (Homo sapiens, UniProt P22303); experiment: biochemical; conditions: calculated from linear equation of three concentrations; read-out: IC50 of AChE inhibition
T2 construct: purchased R&D Systems Inc. (Minneapolis, MN)
Source text: The synthetic acetylthiocholine iodide was used as substrates for in vitro AChE activity assays. […] The released thiocholine was reacted with DTNB to generate yellowish 5-thio-2-nitrobenzoate. […] The AChE inhibitory activities (%) were as following: [(A405blank − A405sample)/(A405blank)] × 100%.

[6] = tested on: SH-SY5Y cells; experiment: Neuroprotective activities against MGO-induced SH-SY5Y cell deaths (SRB cell viability); format: cell-based, human; conditions: then 500 μM MGO 24 h
Method: The SH-SY5Y cells were cultured at 37 °C in the mixed medium of EMEM/F12 (1:1) and 10% FBS in the humidified atmosphere and 5% CO2. […] The treated SH-SY5Y cells were washed with PBS, and then the media without (the blank) or with 500 μM MGO (the control group and sample groups) were added for additional 24-h incubation at 37 °C. The cell viability was assayed by the SRB dyes as follows. The MGO-treated SH-SY5Y cells were washed twice with PBS, fixed by 10% trichloroacetic acid, and then stained with 0.2% SRB (dissolved in 1% acetic acid) for 30 min. The unbound dyes were removed by washing the stained cells with 1% acetic acid. The bound dyes in alive cells were extracted by 500 µL of 10 mM Tris-HCl buffer (pH 7.9). The absorbance at 540 nm was measured using an ELISA reader (TECAN, Männedorf, Switzerland).

[7] = target: T3, AChE (Mus musculus, UniProt P21836); format: in vivo; conditions: vitisin A or B 40 mg/kg oral; donepezil 5 mg/kg; scopolamine-treated mice
T3 construct: The isolated whole brain tissue was weighted, and powdered in liquid nitrogen using a mortar and pestle; from tissue; host or cells: whole brain of ICR mice (PBS extract, supernatant)
T3 sequence (P21836 32-614): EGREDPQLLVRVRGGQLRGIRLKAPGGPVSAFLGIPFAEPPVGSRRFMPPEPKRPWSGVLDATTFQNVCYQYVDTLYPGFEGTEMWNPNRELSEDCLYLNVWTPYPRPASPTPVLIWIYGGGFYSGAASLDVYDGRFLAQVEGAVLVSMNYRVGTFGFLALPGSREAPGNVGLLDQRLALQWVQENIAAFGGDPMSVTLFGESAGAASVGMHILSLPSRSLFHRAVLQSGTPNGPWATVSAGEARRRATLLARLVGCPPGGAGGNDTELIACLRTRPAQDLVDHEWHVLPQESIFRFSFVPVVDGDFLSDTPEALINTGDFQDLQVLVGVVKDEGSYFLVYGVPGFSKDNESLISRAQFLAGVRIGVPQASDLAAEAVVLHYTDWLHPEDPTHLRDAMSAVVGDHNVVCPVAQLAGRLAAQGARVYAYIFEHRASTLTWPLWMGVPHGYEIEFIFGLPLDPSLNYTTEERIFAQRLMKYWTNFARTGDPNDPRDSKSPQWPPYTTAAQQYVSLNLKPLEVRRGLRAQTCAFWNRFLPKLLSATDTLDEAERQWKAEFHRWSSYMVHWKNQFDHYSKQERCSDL
Method: (§1) The isolated whole brain tissue was weighted, and powdered in liquid nitrogen using a mortar and pestle. The proteins in the tissue powders were suspended and extracted by 1 mL, one-fold-diluted PBS. […] The protein contents in tissue extracts were determined by the BCA^TM protein assay kit (Thermo Fisher Scientific Inc.), and BSA was used to plot the standard curve. The AChE activity in the brain extracts was determined following the previous report. […] The malondialdehyde (MDA) levels in the brain extracts was determined using acidic TBA. The 320 μL of 0.5% TBA in 10% trichloroacetic acid was premixed with 80 μL of 5-fold diluted tissue extracts, and then heated at boiling water for 20 min, and then centrifuged at 10,000 rpm, 4 °C for 30 min. […] For determining protein expressions of BDNF and its receptor, TrkB, among brain extracts of the treated mice, the immune stains were performed onto polyvinylidene difluoride (PVDF) membranes (Millipore, Bedford, MA, USA). […] The western chemiluminescent HRP substrate kit (WBKL S0050, Millipore) was used to stain the target protein expressions, which the image system [Syngene GeneGnome5 imaging system (Cambridge, UK)] was used to quantify the image levels of target protein in the immune blots.

[8] = tested on: malondialdehyde (MDA) levels; experiment: MDA levels in mouse brain tissue extracts (TBA); format: in vivo; conditions: vitisin A or B 40 mg/kg oral; donepezil 5 mg/kg; scopolamine-treated mice
Method: as §1

[9] = tested on: brain-derived neurotrophic factor (BDNF); experiment: BDNF protein expression in mouse brain tissue extracts (immune blot); format: in vivo; conditions: vitisin A or B 40 mg/kg oral; donepezil 5 mg/kg; scopolamine-treated mice
Method: as §1

[10] = tested on: C57BL/6 mice treated with high fat diets; parameters: method as in PMID 26448517; conditions: oral administration once a day at dose of 25 mg/kg with high fat diets; cited from earlier work
[11] = tested on: tropomyosin receptor kinase B (TrkB); experiment: TrkB protein expression in mouse brain tissue extracts (immune blot); format: in vivo; conditions: vitisin A or B 40 mg/kg oral; donepezil 5 mg/kg; scopolamine-treated mice
Method: as §1

[12] = tested on: spontaneously hypertensive rats; parameters: method as in PMID 22762395; conditions: at the 8-h after a single oral dose of 10 mg/kg; cited from earlier work
[13] = tested on: endothelium-intact thoracic aortic rings of SD rats; parameters: method as in PMID 22762395; conditions: by increasing NO releases; cited from earlier work
[14] = compound study: vitisin A or vitisin B 40 mg/kg oral daily day 1-13, donepezil 5 mg/kg day 10-13
[15] = pretreatment 2.5, 5, 10, and 20 μM for 24 h

T2 sequence (P22303 32-614): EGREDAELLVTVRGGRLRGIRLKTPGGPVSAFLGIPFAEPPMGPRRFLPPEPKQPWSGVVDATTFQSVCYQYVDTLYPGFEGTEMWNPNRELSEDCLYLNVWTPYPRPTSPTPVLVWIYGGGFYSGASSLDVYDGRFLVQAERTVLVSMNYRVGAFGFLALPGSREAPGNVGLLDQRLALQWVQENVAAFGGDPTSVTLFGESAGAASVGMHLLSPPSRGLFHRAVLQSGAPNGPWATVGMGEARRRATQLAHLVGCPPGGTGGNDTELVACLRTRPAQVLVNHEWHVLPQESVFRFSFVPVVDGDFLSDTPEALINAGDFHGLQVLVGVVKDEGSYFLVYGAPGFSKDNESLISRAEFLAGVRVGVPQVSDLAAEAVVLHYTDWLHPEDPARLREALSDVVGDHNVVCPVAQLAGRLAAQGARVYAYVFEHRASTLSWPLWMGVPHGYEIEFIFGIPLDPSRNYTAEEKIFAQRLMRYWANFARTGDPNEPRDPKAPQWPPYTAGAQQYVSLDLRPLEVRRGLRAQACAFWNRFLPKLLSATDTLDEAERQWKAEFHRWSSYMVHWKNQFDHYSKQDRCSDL

SMILES	IC50 [1] [µM]	step-through latency in the retention trial compared to the control [3, 14]	IC50 [4] [µM]	IC50 [5] [µM]	MGO-treated cell viability compared to the control [6, 15]	also measured
O=C(O[C@H]1[C@@H]2OC(=O)c3cc(O)c(O)c(O)c3-c3c(cc(O)c(O)c3O)C(=O)OC[C@H]2OC(O)[C@@H]1OC(=O)c1cc(O)c(O)c(O)c1)c1cc(O)c(O)c(O)c1 (stereo partly drawn) [tellimagrandin I]	18.4					
O=C(OC[C@H]1O[C@@H](OC(=O)c2cc(O)c(O)c(O)c2)[C@H](OC(=O)c2cc(O)c(O)c(O)c2)[C@@H](OC(=O)c2cc(O)c(O)c(O)c2)[C@@H]1O)c1cc(O)c(O)c(O)c1 [1,2,3,6-tetra-O-galloyl-β-D-glucopyranoside]	84.2					
COc1cc(/C=C/C(=O)CC(=O)/C=C/c2ccc(O)c(O)c2)ccc1O [demethylcurcumin]						IC50 [2]: 66.9 µM
COc1cc2c(cc1OC)C(=O)C(CC1CCN(Cc3ccccc3)CC1)C2 (stereo not drawn) [donepezil, reference compound]		significant longer time				step-through latency in the retention trial compared to the control ([3]; extract study: VT-95EE or VT-95EE-EA 200 and 400 mg/kg oral daily day 1-15, donepezil 5 mg/kg day 12-15): significant longer time
Oc1ccc([C@H]2c3c(O)cc(O)cc3[C@H]3c4c(cc(O)cc4[C@@H]2[C@H]2c4cc(O)cc5c4[C@H](c4cc(O)cc(O)c4[C@@H]2c2ccc(O)cc2)[C@@H](c2ccc(O)cc2)O5)O[C@@H]3c2ccc(O)cc2)cc1 [hopeaphenol, (+)-hopeaphenol]			88.2	8.06	no significant difference	
O=C(OC1O[C@@H]2COC(=O)c3cc(O)c(O)c(O)c3-c3c(cc(O)c(O)c3O)C(=O)O[C@H]2[C@H](OC(=O)c2cc(O)c(O)c(O)c2)[C@H]1OC(=O)c1cc(O)c(O)c(O)c1)c1cc(O)c(O)c(O)c1 (stereo partly drawn) [tellimagrandin II]	18.6					
Oc1ccc([C@H]2Oc3cc(O)cc(/C=C/c4ccc5c(c4)[C@@H](c4cc(O)cc6c4[C@H](c4cc(O)cc(O)c4)[C@@H](c4ccc(O)cc4)O6)[C@H](c4ccc(O)cc4)O5)c3[C@@H]2c2cc(O)cc(O)c2)cc1 [vitisin B, (−)-vitisin B]		no significant difference	1.08	1.33		AChE activity in brain tissue extracts compared to the control [7]: lower increased AChE activities; MDA levels in brain tissue extracts compared to the control [8]: no effect on reduction of MDA level; BDNF protein expression in brain tissue extracts [9]: recover the reduced BDNF protein expressions; MGO-treated cell viability compared to the control ([6]; pretreatment 5, 10, and 20 μM for 24 h): significantly to elevate MGO-treated cell viability
Oc1ccc([C@H]2c3c(O)cc(O)cc3[C@H]3c4c(cc(O)cc4[C@@H]2c2cc(/C=C/c4cc(O)cc5c4[C@H](c4cc(O)cc(O)c4)[C@@H](c4ccc(O)cc4)O5)ccc2O)O[C@@H]3c2ccc(O)cc2)cc1 [vitisin A, (+)-vitisin A]		significant longer time	4.94	1.29	significantly to elevate MGO-treated cell viability	weight gains [10]: reduce weight gains; TrkB protein expression in brain tissue extracts [11]: recover both protein expressions of the reduced BDNF and TrkB; greatest reduction in diastolic blood pressure [12]: 25.7 mmHg; greatest reduction in systolic blood pressure [12]: 23.6 mmHg; AChE activity in brain tissue extracts compared to the control [7]: lower increase in AChE and MDA levels; MDA levels in brain tissue extracts compared to the control [8]: lower increase in AChE and MDA levels; BDNF protein expression in brain tissue extracts [9]: recover both protein expressions of the reduced BDNF and TrkB; effect on phenylephrine-induced tension [13]: vasodilating effects
Oc1ccc(/C=C/c2cc(O)cc(O)c2)cc1 [resveratrol, reference compound]			41.3		no significant difference	
